Literature values, collected in patent publication US9827315B2, “Compositions of pharmaceutical actives containing diethylene glycol monoethyl ether or other alkyl derivatives” (THEMIS MEDICARE LIMITED, priority 2013, dated 2017).
Converted amounts (≈) assume the structure as drawn. Where a name gives a salt, the structure may show the parent alone.

Conditions: at 22° C.; cited from earlier work

| SMILES | solubility (solvent not given) |
| --- | --- |
| NC(Cc1ccc(N(CCCl)CCCl)cc1)C(=O)O (stereo not shown) [Melphalan] | < 0.1 g/100 mL |

Same assay, conditions: at 25° C.; cited from earlier work

| SMILES | viscosity of vehicle | solubility in water |
| --- | --- | --- |
| CCCCCCCC/C=C\CCCCCCCC(=O)OCC [Ethyl oleate] | 3.9 Cps |  |
| CC(=O)S[C@@H]1CC2=CC(=O)CC[C@]2(C)[C@H]2CC[C@@]3(C)[C@@H](CC[C@@]34CCC(=O)O4)[C@H]12 [Spironolactone, 17-hydroxy-7α-mercapto-3-oxo-17α-pregn-4-ene-21-carboxylic acid, γ-lactone acetate] |  | about 22 mg/L |

Same assay, conditions: at pH 6.5; cited from earlier work

| SMILES | solubility in water |
| --- | --- |
| Brc1c(NC2=NCCN2)ccc2nccnc12 [Brimonidine tartarate] | 34 mg/mL (≈ 116 mM) |

Same assay, conditions: at pH 7.0; cited from earlier work

| SMILES | octanol/water partition coefficient |
| --- | --- |
| COC(=O)[C@@H]1CC2=CC(=O)CC[C@]2(C)[C@@]23O[C@@H]2C[C@@]2(C)[C@@H](CC[C@@]24CCC(=O)O4)[C@H]13 [Eplerenone, pregn-4-ene-7,21-dicarboxylic acid, 9,11-epoxy-17-hydroxy-3-oxo, γ-lactone, methyl ester (7α, 11α, 17α)] | approximately 7.1 |

Same assay, conditions: cited from earlier work

| SMILES | solubility in DMSO | solubility in water |
| --- | --- | --- |
| Cl.N[C@@H]1CCCCN(c2c(F)cc3c(=O)c(C(=O)O)cn(C4CC4)c3c2Cl)C1 [Besifloxacin] | Sparingly soluble in methanol, Sparingly soluble in water (1 mg/mL), DMSO (<1 mg/mL) | Sparingly soluble in methanol, Sparingly soluble in water (1 mg/mL), DMSO (<1 mg/mL) |
| Cc1ccc(-c2ncc(Cl)cc2-c2ccc(S(C)(=O)=O)cc2)cn1 [Etoricoxib, 5-chloro-6′-methyl-3-[4-(methylsulfonyl)phenyl]-2,3′-bipyridine] |  | about 3.3 mg/L |

Same assay, conditions: dissolved in 30 ml water; cited from earlier work

| SMILES | water solubility |
| --- | --- |
| CC[C@H]1OC(=O)[C@H](C)[C@@H](O[C@H]2C[C@@](C)(OC)[C@@H](O)[C@H](C)O2)[C@H](C)[C@@H](O[C@@H]2O[C@H](C)C[C@H](N(C)C)[C@H]2O)[C@](C)(O)C[C@@H](C)/C(=N\OCOCCOC)[C@H](C)[C@@H](O)[C@]1(C)O [Roxithromycin, (3R,4S,5S,6R,7R,9R,11S,12R,13S,14R)-6-[(2S,3R,4S,6R)-4-d-3-hydroxy-6-methyloxan-2-yl]oxy-14-ethyl-7,12,13-trihydroxy-4-[(2R,4R,5S,6S)-5-hydroxy-4-methoxy-4,6-dimethyloxan-2-yl]oxy-10-(2-methoxyethoxymethoxyimino)-3,5,7,9,11,13-hexamethyl-1-oxacyclotetradecan-2-one] | 0.1 g |

Same assay, conditions: water; cited from earlier work

| SMILES | Solubility in water (descriptive) |
| --- | --- |
| CCC(C)n1ncn(-c2ccc(N3CCN(c4ccc(OC[C@H]5CO[C@](Cn6cncn6)(c6ccc(Cl)cc6Cl)O5)cc4)CC3)cc2)c1=O (mixture of isomers) [Itraconazole] | Soluble in organic solvents such as DMSO and dimethyl formamide. Insoluble in water. |
| CCOC(=O)C1=C(COCCN)NC(C)=C(C(=O)OC)C1c1ccccc1Cl (racemic) [Amlodipine besylate, 3-Ethyl-5-methyl(±)-2-[(2-aminoethoxy)methyl]4-(2-chlorophenyl)-1,4-dihydro-6-methyl-3,5-pyridinedicarboxylate, mono benzene sulphonate] | slightly soluble |
| COC(=O)C1=C(C)NC(C)=C(C(=O)OC2CCN(Cc3ccccc3)C2)[C@H]1c1cccc([N+](=O)[O-])c1.Cl (stereo in doubt) [Barnidipine Hydrochloride, 3-(3R)-1-benzylpyrrolidin-3-yl 5-methyl 2,6-dimethyl-4-(3-nitrophenyl)-1,4-dihydropyridine-3,5-dicarboxylate] | insoluble |
| O=C(O)COC(=O)Cc1ccccc1Nc1c(Cl)cccc1Cl [Aceclofenac, 2-[2-[2-[(2,6-dichlorophenyl)amino]phenyl]acetyl]oxyacetic acid] | practically insoluble |
| C=CC[C@]1(O)CC[C@H]2[C@@H]3CCC4=CCCC[C@@H]4[C@H]3CC[C@@]21C [Allyoestrenol, (17β)-17-(prop-2-en-1-yl)estr-4-en-17-ol] | practically insoluble |
| COC(=O)C1=C(C)NC(C)=C(C(=O)O[C@@H]2CCCN(Cc3ccccc3)C2)C1c1cccc([N+](=O)[O-])c1 (stereo partly drawn) [Benidipine Hydrochloride, O5-methyl O3-[(3R)-1-(phenylmethyl)piperidin-3-yl]2,6-dimethyl-4-(3-nitrophenyl)-1,4-dihydropyridine-3,5-dicarboxylate] | practically insoluble |
| C=C(c1ccc(C(=O)O)cc1)c1cc2c(cc1C)C(C)(C)CCC2(C)C [Bexarotene] | Insoluble in water and slightly soluble in vegetable oils and ethanol, USP |
| C[C@H](CS)C(=O)N1CCC[C@H]1C(=O)O [Captopril, (2S)-1-[(2S)-2-methyl-3-sulfanylpropanoyl]pyrrolidine-2-carboxylic acid] | easily soluble |
| CCCC(=O)OCOC(=O)C1=C(C)NC(C)=C(C(=O)OC)[C@H]1c1cccc(Cl)c1Cl [Clevidipine, O3-(butanoyloxymethyl) O5-methyl (4R)-4-(2,3-dichlorophenyl)-2,6-dimethyl-1,4-dihydropyridine-3,5dicarboxylate] | practically insoluble |
| Cc1c(OCC(F)(F)F)ccnc1C[S@@+]([O-])c1nc2ccccc2[nH]1 [Dexlansoprazole, (R)-(+)2-([3-methyl-4-(2,2,2-trifluoroethoxy)pyridin-2-yl]methylsulfinyl)-1H-benzo[d]imidazole] | very slightly soluble |
| CCN(CC)CCOC(=O)C1(C2CCCCC2)CCCCC1 [Dicyclomine Hydrocloride, Dicyclomine] | soluble |
| CCCC(=O)O[C@]1(C(=O)COC(C)=O)CC[C@H]2[C@@H]3C[C@H](F)C4=CC(=O)C=C[C@]4(C)[C@@]3(F)[C@@H](O)C[C@@]21C [Difluprednate] | Very low solubility in water |
| COC(=O)[C@@H]1CC2=CC(=O)CC[C@]2(C)[C@@]23O[C@@H]2C[C@@]2(C)[C@@H](CC[C@@]24CCC(=O)O4)[C@H]13 [Eplerenone, pregn-4-ene-7,21-dicarboxylic acid, 9,11-epoxy-17-hydroxy-3-oxo, γ-lactone, methyl ester (7α, 11α, 17α)] | very slightly soluble |
| C#C[C@]1(O)CC[C@H]2[C@@H]3CCc4cc(O)ccc4[C@H]3CC[C@@]21C [Ethinyl estradiol, 19-nor-17α-pregna-1,3,5(10)-trien-20-yne-3,17-diol] | practically insoluble |
| O=C1[C@H](CC[C@H](O)c2ccc(F)cc2)[C@@H](c2ccc(O)cc2)N1c1ccc(F)cc1 [Ezetimibe] | Freely to very soluble in ethanol, methanol, and acetone and practically insoluble in water. |
| OC(Cn1cncn1)(Cn1cncn1)c1ccc(F)cc1F [Fluconazole, 2-(2,4-difluorophenyl)-1,3-bis(1H-1,2,4-triazol-1-yl)propan-2-ol] | very slightly soluble |
| CC(=O)O[C@]1(C(C)=O)CC[C@H]2C3C[C@H](C)C4=CC(=O)C=CC4(C)[C@@]3(F)[C@@H](O)CC21C (stereo partly shown) [Flurometholone Acetate] | Freely soluble in chloroform and acetone, soluble in ethanol, very slightly soluble in water |
| CCC(=O)O[C@]1(C(=O)SCF)[C@H](C)C[C@H]2[C@@H]3C[C@H](F)C4=CC(=O)C=C[C@]4(C)[C@@]3(F)[C@@H](O)C[C@@]21C [Fluticasone Propionate] | It is practically insoluble in water, freely soluble in dimethyl sulfoxide and dimethylformamide, and slightly soluble in methanol and 95% ethanol. Solubility in Diethylene glycol monoethyl ether is 14.7 mg/ml. |
| CN1C(C(=O)Nc2ccccn2)=C(O)c2sc(Cl)cc2S1(=O)=O [Lornoxicam, (3E)-6-chloro-3-[hydroxy(pyridin-2-ylamino)methylene]-2-methyl-2,3-dihydro-4H-thieno[2,3-e][1,2]thiazin-4-one 1,1-dioxide] | hardly soluble |
| CC(=O)O[C@]1(C(C)=O)CC[C@H]2[C@@H]3C[C@H](C)C4=CC(=O)CC[C@]4(C)[C@H]3CC[C@@]21C [MPA, 17α-hydroxy-6α-methylpregn-4-ene-3,20-dione acetate] | insoluble |
| COc1ccccc1OCC(O)COC(N)=O (stereo not shown) [Methocarbamol, 3-(2-methoxyphenoxy)-1,2-propanediol 1-carbamate] | sparingly soluble |
| CCCCCCCCCC(=O)O[C@H]1CC[C@H]2[C@@H]3CCC4=CC(=O)CC[C@@H]4[C@H]3CC[C@]12C [Nandrolone Decoanate, Estr-4-en-3-one,17-[(1-oxodecyl)oxy]-,(17b)-] | practically insoluble |
| COCCOC(=O)C1=C(C)NC(C)=C(C(=O)OC(C)C)C1c1cccc([N+](=O)[O-])c1 (stereo not shown) [Nimodipine] | Soluble in methanol. Insoluble in water in beta cyclodextrin |
| C#C[C@]1(OC(=O)CCCCCC)CC[C@H]2[C@@H]3CCC4=CC(=O)CC[C@@H]4[C@H]3CC[C@@]21C [Norethisterone enantate, 17alpha-Ethynyl-19-nortestosterone 17-heptanoate] | practically insoluble |
| CC1=C(C/C=C(\C)CCC[C@H](C)CCC[C@H](C)CCCC(C)C)C(=O)c2ccccc2C1=O [Phytomenadione, 2-methyl-3-phytyl-1,4-naphthoquinone] | insoluble |
| CC(=O)OCC(=O)[C@@]1(O)CC[C@H]2[C@@H]3CCC4=CC(=O)C=C[C@]4(C)[C@H]3[C@@H](O)C[C@@]21C [Prednisolone acetate, 11β,17,21-Trihydroxypregna-1,4-diene-3,20-dione 21-acetate] | practically insoluble |
| CC[C@H]1OC(=O)[C@H](C)[C@@H](O[C@H]2C[C@@](C)(OC)[C@@H](O)[C@H](C)O2)[C@H](C)[C@@H](O[C@@H]2O[C@H](C)C[C@H](N(C)C)[C@H]2O)[C@](C)(O)C[C@@H](C)/C(=N\OCOCCOC)[C@H](C)[C@@H](O)[C@]1(C)O [Roxithromycin, (3R,4S,5S,6R,7R,9R,11S,12R,13S,14R)-6-[(2S,3R,4S,6R)-4-d-3-hydroxy-6-methyloxan-2-yl]oxy-14-ethyl-7,12,13-trihydroxy-4-[(2R,4R,5S,6S)-5-hydroxy-4-methoxy-4,6-dimethyloxan-2-yl]oxy-10-(2-methoxyethoxymethoxyimino)-3,5,7,9,11,13-hexamethyl-1-oxacyclotetradecan-2-one] | almost insoluble |
| C[C@]12Cc3c[nH]nc3C[C@@H]1CC[C@@H]1[C@@H]2CC[C@@]2(C)[C@H]1CC[C@]2(C)O [Stanozolol] | practically insoluble |
| CN1CC(=O)N2[C@H](c3ccc4c(c3)OCO4)c3[nH]c4ccccc4c3C[C@@H]2C1=O [Tadalafil] | Insoluble in water and very slightly soluble in ethanol |
| CC1=C(/C=C/C(C)=C/C=C/C(C)=C/C(=O)O)C(C)(C)CCC1 [Tretinoin] | Insoluble in water |

Same assay, conditions: with slight warming; cited from earlier work

| SMILES | solubility in water |
| --- | --- |
| COc1cccc2c1C(=O)c1c(O)c3c(c(O)c1C2=O)C[C@@](O)(C(=O)CO)C[C@@H]3O[C@H]1C[C@H](N)[C@H](O)[C@H](C)O1 [Doxorubicin] | 10 mg/mL (≈ 18.4 mM) |
